System: H3K27 methylation in G401 cell
Assay: ELISA (H3K27 methylation) assay
Type: cell-based
Conditions: Homo sapiens, G-401; ELISA Qualified assay (H3K27 methylation); read-out: (c) IC50 (μM), ELISA Qualified
Text: ELISA (H3K27 Methylation) Assay

CC1CCCN1c1ccc(-c2cnc(NCc3cccc4c3CCO4)n3cnnc23)cn1 (stereo not shown) [Example 96, N-((2,3-dihydrobenzofuran-4-yl)methyl)-8-(6-(2-methylpyrrolidin-1-yl)pyridin-3-yl)-[1,2,4]triazolo[4,3-c]pyrimidin-5-amine]
IC50: 0.329 µM

Cc1nn(CCO)cc1-c1cnc(NCc2c(F)ccc3c2CCO3)n2cnnc12 [Example 190, 2-(4-(5-(((5-fluoro-2,3-dihydrobenzofuran-4-yl)methyl)amino)-[1,2,4]triazolo[4,3-c]pyrimidin-8-yl)-3-methyl-1H-pyrazol-1-yl)ethanol]
IC50: 0.0025 µM

CN1CCN(C(=O)c2ccc(-c3cnc(NCc4c(F)ccc5c4CCO5)n4cnnc34)cc2)CC1 [Example 72, (4-(5-(((5-fluoro-2,3-dihydrobenzofuran-4-yl)methyl)amino)-[1,2,4]triazolo[4,3-c]pyrimidin-8-yl)phenyl)(4-methylpiperazin-1-yl)methanone]
IC50: 0.0097 µM

Cc1cnc(C(F)(F)F)cc1-c1cnc(NCc2c(F)ccc3c2CCO3)n2cnnc12 [Example 184, N-((5-fluoro-2,3-dihydrobenzofuran-4-yl)methyl)-8-(5-methyl-2-(trifluoromethyl)pyridin-4-yl)-[1,2,4]triazolo[4,3-c]pyrimidin-5-amine]
IC50: 0.0777 µM

Cc1nn(C)cc1-c1cnc(NCc2c(F)ccc3c2CCO3)n2cnnc12 [Example 195, 8-(1,3-dimethyl-1H-pyrazol-4-yl)-N-((5-fluoro-2,3-dihydrobenzofuran-4-yl)methyl)-[1,2,4]triazolo[4,3-c]pyrimidin-5-amine]
IC50: 0.0024 µM

Cc1cc(-c2cnc(NCc3cccc4c3CCO4)n3cnnc23)ccc1C(=O)N(C)C [Example 49, 4-(5-(((2,3-dihydrobenzofuran-4-yl)methyl)amino)-[1,2,4]triazolo[4,3-c]pyrimidin-8-yl)-N,N,2-trimethylbenzamide]
IC50: 0.366 µM

Cc1cc(-c2cnc(NCc3cccc4c3CCO4)n3cnnc23)cnc1N1CCN(C)CC1 [Example 36, N-((2,3-dihydrobenzofuran-4-yl)methyl)-8-(5-methyl-6-(4-methylpiperazin-1-yl)pyridin-3-yl)-[1,2,4]triazolo[4,3-c]pyrimidin-5-amine]
IC50: 0.0683 µM

Cc1ncccc1-c1cnc(NCc2c(F)ccc3c2C(O)CO3)n2cnnc12 (stereo not shown) [Example 242, 5-fluoro-4-(((8-(2-methylpyridin-3-yl)-[1,2,4]triazolo[4,3-c]pyrimidin-5-yl)amino)methyl)-2,3-dihydrobenzofuran-3-ol]
IC50: 0.0634 µM

COc1cc(Cl)c(-c2cnc(NCc3c(F)ccc4c3CCO4)n3cnnc23)cn1 [Example 138, 8-(4-chloro-6-methoxypyridin-3-yl)-N-((5-fluoro-2,3-dihydrobenzofuran-4-yl)methyl)-[1,2,4]triazolo[4,3-c]pyrimidin-5-amine]
IC50: 0.0072 µM

Cc1cnc(C(F)F)cc1-c1cnc(NCc2c(F)ccc3c2CCO3)n2cnnc12 [Example 198, 8-(2-(difluoromethyl)-5-methylpyridin-4-yl)-N-((5-fluoro-2,3-dihydrobenzofuran-4-yl)methyl)-[1,2,4]triazolo[4,3-c]pyrimidin-5-amine]
IC50: 0.0078 µM

OCCn1cc(-c2cnc(NCc3cccc4c3CCO4)n3cnnc23)cn1 [Example 34, 2-(4-(5-(((2,3-dihydrobenzofuran-4-yl)methyl)amino)-[1,2,4]trizaolo[4,3-c]pyrimidin-8-yl)-1H-pyrazol-1-yl)ethanol]
IC50: 1.95 µM

CN(C)S(=O)(=O)c1ccc(-c2cnc(NCc3cccc4c3CCO4)n3cnnc23)cc1 [Example 15, 4-(5-(((2,3-dihydrobenzofuran-4-yl)methyl)amino)-[1,2,4]triazolo[4,3-c]pyrimidin-8-yl)-N,N-dimethylbenzenesulfonamide]
IC50: 0.0198 µM

CN(C)Cc1ccc(-c2cnc(NCc3cccc4c3CCO4)n3cnnc23)cc1 [Example 11, N-((2,3-dihydrobenzofuran-4-yl)methyl)-8-(4-((dimethylamino)methyl)phenyl)-[1,2,4]triazolo[4,3-c]pyrimidin-5-amine]
IC50: 0.0144 µM
